# According to patent US12116574B2, “Anti-inflammatory treatment via inhibition of endothelial cell kinesin light chain 1, variant 1 (KLC1C)” (Northwestern University, priority 2016, dated 2024):
# Entries after “also recorded” stand apart in the source; their conditions may differ.
# Key:
# Type in all cases: cell-based, human
# [1] = tested on: lateral border recycling compartment (LBRC) in HUVEC; assay: Targeted Recycling assay (LBRC recruitment to transmigrating leukocytes); details: transduced HUVEC, 8.5 minutes
# Method: The Targeted Recycling assay determines whether the LBRC has been recruited to transmigrating leukocytes. Targeted recycling was performed as described previously (ref 5; herein incorporated by reference in its entirety). HUVEC monolayers are incubated with an Fab fragment of P1.1 mAb for 1 h at 37° C. in a CO2 incubator. […] HUVEC are then put on ice and washed with PBS to remove any free unbound Fab, followed by an incubation with an excess of F(ab′)2 fragment of unlabeled goat anti-mouse IgG on ice for 1 h. This saturably binds all of the Fab that is present on the surface of the endothelial junction, but will not enter the LBRC at this temperature. Free antibody is washed away and 2×10^6 PBMCs mixed with Alexa-568-conjugated F(ab′)2 fragment of the same goat […] transmigration to begin. Cells are then put on ice and washed with ice-cold PBS, followed by fixation in 2% paraformaldehyde for 10 min at room temperature.
# In this procedure, only PECAM that was originally in the LBRC and recycled to the surface during the transmigration period will be labeled with the fluorescent secondary antibody, since it was protected from the unlabeled secondary antibody during the incubation on ice. The synchronized transmigration for a short time (8 minutes) catches leukocytes early in the act of transmigration before significant constitutive recycling and a corresponding increase in the staining of uninvolved junction occurs.
# Confocal fluorescence microscopy is used to image the targeted recycling events. Leukocytes are identified with fluorescently conjugated mAb against CD18 (IB4). […] The number of monocytes in contact with the endothelial monolayer at cell junctions was assessed, and of those, it was determined how many are contacted by membrane from the LBRC. The intensity of fluorescent Goat-anti-mouse mAb was measured to quantify enrichment of recycling LBRC around transmigrating leukocytes. One-pixel-wide lines are drawn along the area surrounding the site of diapedesis. The mean fluorescence intensity in contact with the leukocyte is divided by the average intensity of constitutively recycled PECAM at the adjacent cell border to calculate LBRC enrichment around transmigrating leukocytes. Multiple monolayers were examined until at least one hundred transmigration events are observed for each variable tested. To avoid unintentional bias each leukocyte in contact with the endothelial border is scored, whether or not it has initiated TEM. […] Image processing and quantification of data are performed using Volocity and ImageJ (NIH) image processing software.
# HUVEC = assay: Standard one hour Transendothelial Migration (TEM) assay on transduced HUVEC
# Method: (§1) 293A cells were grown on 100 mm dishes to 70-90% confluency and then transfected with adenoviral constructs using Lipofectamine 2000 for delivery. Amplified virus that expressed KHC and KLC knockdown and rescue constructs was purified and used to in transduction of HUVEC for knockdown and rescue experiments (VIRAPOWER Adenoviral Expression System).
# The TEM assay is a quantitative assay designed to assess, using large numbers of transmigration events (more than 300 per variable tested), the effect of various treatments such as knocking down Kinesin-1, on the process of transmigration. As routinely performed in our lab (refs. 19,21; herein incorporated by reference in their entireties), peripheral blood mononuclear cells (PBMC, to assess monocyte transmigration) from healthy volunteers are purified on a Ficoll density gradient and then washed in Hanks' buffered saline solution (HBSS) plus 0.1% human serum albumin. Following this wash, they are resuspended in Medium 199 plus 0.1% human serum albumin. 2×10^6 cells are added to confluent TNF-α activated (10 ng/mL, >4 hrs) human umbilical vein endothelial cell (HUVEC) monolayers grown on hydrated collagen gels and incubated for 1 h at 37° C. in a CO2 incubator (ref. 22; herein incorporated by reference in its entirety). This is enough time to allow maximum TEM of control cells (˜90%).
# To assess the role of microtubule motors in leukocyte TEM, control and experimentally treated HUVEC are compared side by side in this assay. The co-culture is washed with cold PBS and fixed overnight with 2.5% glutaraldehyde in 0.1 M sodium cacodylate buffer, pH 7.4. TEM is quantitated by Nomarski optics (ref. 21; herein incorporated by reference in its entirety). […] Monocytes are scored in each of several random fields for each monolayer until at least 100 are counted, with 3 replicate monolayers for each condition for a total of over 300 cells per variable tested. To avoid unintentional bias, all cells in the field are counted. Data are expressed as the percent of total leukocytes (attached plus transmigrated) that have transmigrated.
# Kinesin-1 = assay: Western Blot of Kinesin-1 in virally-transduced HUVEC; details: Kinesin-1 shRNA plus mCherry-tagged rescue construct
# Method: as §1
# HUVEC were harvested for SDS-PAGE by washing with PBS and adding sample buffer. DNA was sheared by passing through a 27 G needle 10 times and samples were heated to 100° C. for 5 minutes. Samples were separated on 8% polyacrylamide gels and transferred onto polyvinyldifluoride membranes before blocking with 5% milk in PBS with 0.05% Tween and probing with primary antibodies. Blots were incubated with horseradish peroxidase-conjugated secondary antibodies in 5% milk in PBS with 0.05% Tween, then washed, and detected using chemiluminescence and exposure to X-ray film.
Substance,LBRC enrichment around monocytes at endothelial junctions [1],targeted recycling of the LBRC [1],targeted recycling of the LBRC ([1]; listed as KLC1 Variant 1 shRNA),transmigration (TEM) of monocytes (HUVEC),Kinesin-1 expression after rescue of knockdown (Kinesin-1)
KLC1 variant 1 shRNA: shRNA targeting 3′ noncoding region of KLC1 isoform variant 1 (NM_005552.4); 5′-TGTATTTGTGTCTTTCTAA-3′ (SEQ ID NO: 11) (the letters are possibly those of the target site),significantly diminished,significantly diminished,significantly decreased,reduced; also recorded: blocks,–
Kinesin-1 rescue construct: KHC rescue construct with silent point mutations in the targeted sequences and in-frame mCherry tag at the 3′ end,–,restored targeted recycling to control levels,–,rescued,rescued
KLC1 variants 2 & 3 shRNA: shRNA targeting KLC1 isoform variants 2 (NM_182923.3) and 3 (NM_001130107.1); 5′-GCATAGGACATGATACTAA-3′ (SEQ ID NO: 12) (the letters are possibly those of the target site),–,–,–,not,–
